Measured values reported in patent US12240854B2, “TRAF 6 inhibitors” (Helmholtz Zentrum München - Deutsches Forschungszentrum für …, priority 2018, dated 2025).
Entries after “also recorded” stand apart in the source; their conditions may differ. Where two headings read alike, the source gives them in different places.

Experiments:
[1] = molecular target: T1, TRAF6-Ubc13 binding in HEK293T cells (Homo sapiens, UniProt Q9Y4K3); assay: Co-immunoprecipitation of HA-TRAF6 and Ubc13 in HEK 293T cells; assay type: cell-based
T1 construct: RING-Zincfinger1 (RZ1) domain (residues 50-159) of human TRAF6 wildtype; expressed in transfected cells; host or cells: HEK 293T
T1 sequence (Q9Y4K3 50-159): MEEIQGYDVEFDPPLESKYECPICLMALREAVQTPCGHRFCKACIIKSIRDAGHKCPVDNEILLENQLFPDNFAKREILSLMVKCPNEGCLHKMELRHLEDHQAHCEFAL
Experimental: To study the interaction of TRAF6 and Ubc13 in cells, 1×10^6 293T cells were seeded and after 18 hours cells were transfected with 1 μg pEF-HA empty or pEF-HA-TRAF6 RZ1 plasmid using the X-tremeGENE HP DNA transfection reagent (Roche). 6 hours upon transfection, cells were treated with compound or DMSO. After 42 hours further incubation, cells were harvested in Co-IP lysis buffer and HA-TRAF6 was immunoprecipitated with anti-HA affinity matrix (Roche). Binding of Ubc13 to TRAF6 was examined in Western Blot analysis.

[2] = molecular target: T2, TRAF6WTStrepII-Ubc13FH interaction (Homo sapiens, UniProt Q9Y4K3); assay: ALPHAScreen TRAF6-Ubc13 interaction assay; assay type: binding
T2 construct: RING-Zincfinger1 (RZ1) domain (residues 50-159) of human TRAF6 wildtype; made in house; host or cells: E. coli BL21 codon plus RIPL
T2 sequence (Q9Y4K3 with tags, fused parts or gaps): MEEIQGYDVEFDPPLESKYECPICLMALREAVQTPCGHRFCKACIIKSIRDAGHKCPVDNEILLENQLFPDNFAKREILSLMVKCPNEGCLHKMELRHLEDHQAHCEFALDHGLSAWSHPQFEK
From the text: In order to identify small molecules that specifically target the RZ1 domain of TRAF6 and thereby prevent its binding to Ubc13, the ALPHAScreen technology (PerkinElmer) was chosen to detect TRAF6WTStrepII-Ubc13FH interaction in High-Throughput-Screenings as well as Structure Activity Relationship (SAR) analysis.
For performance of an automated ALPHAScreen assay, all following components were pre-diluted in ALPHAScreen buffer (1×PBS, 0.5% BSA, 0.01% Tween-20). First, the TRAF6 protein (end concentration 100 nM, 30 μL volume) was added to 384-well-opti-plates involving the MultiFlo dispensing system (BioTek) followed by transfer of the compounds via the Sciclone G3 transfer station (PerkinElmer). After addition of Ubc13FH (end concentration 75 nM, 10 μL volume) with the MultiFlo system and incubation for one hour at room temperature, both beads (Strep-Tactin Alpha Donor beads and Nickel-Chelate acceptor beads; end concentrations 4 μg each, 10 μL volume each) were mixed and added using the MultiFlo system in subdued light. Read-out of the plates occurred after another hour of incubation at room temperature. Statistical parameters including the coefficient of variation, Z′ factor and signal window were calculated to determine the quality of the HTS campaign. To evaluate the efficacy of the compounds, ALPHAScreen units of compound-treated samples were referred to DMSO control treated samples. Thereby, the TRAF6D57K mutant served as the control for minimum signal and was included on every plate of the screening. Compounds that inhibited TRAF6WTStrepII-Ubc13FH by more than 25% were considered as actives. After elimination of ALPHAScreen frequent hitter compounds and His-tag frequent hitters (Schorpp, K., I. Rothenaigner, E. Salmina, et al., Identification of Small-Molecule Frequent Hitters from AlphaScreen High-Throughput Screens. J Biomol Screen, 2014. 19(5): p. 715-26), 178 compounds were defined as primary hits and were subsequently tested in five-point serial dilution assays (2.5-40 μM) in TRAF6WTStrepII-Ubc13FH ALPHAScreen experiments. Only compounds with dose-dependent effects on TRAF6WTStrepII-Ubc13FH (n=27) were taken for further research. For analog testing, all compounds were analyzed in ten-point titration (0.2-100 μM) in TRAF6WTStrepII-Ubc13FH ALPHAScreen experiments. In parallel, the compounds were tested in the ALPHAScreen TruHits Kit (PerkinElmer) to rule out unspecific interference with the ALPHAScreen technology.

| Structure (SMILES) | interaction of endogenous Ubc13 with HA-tagged TRAF6 (co-immunoprecipitation) [1] | further results |
| --- | --- | --- |
| Cc1nn(-c2ccc3nnc(C)n3n2)c(C)c1CCC(=O)N1CCC(Cc2ccccc2)C1 (centres unmarked) [HZM06-4, 1-(3-benzylpyrrolidin-1-yl)-3-(3,5-dimethyl-1-(3-methyl-[1,2,4]triazolo[4,3-b]pyridazin-6-yl)-1H-pyrazol-4-yl)propan-1-one] | also active in cells; also recorded: most active analogs | interaction of endogenous Ubc13 with HA-tagged TRAF6 (co-immunoprecipitation) ([1]; listed as HZM06-04): demonstrated inhibition of TRAF6-Ubc13 binding; inhibition of TRAF6-Ubc13 interaction in ALPHAScreen (in words) [2]: most prominent effect |
| Cc1nn(-c2ccc3nnc(C)n3n2)c(C)c1CCC(=O)N1CCC(c2ccccc2)CC1 [HZM06-6, 3-(3,5-dimethyl-1-(3-methyl-[1,2,4]triazolo[4,3-b]pyridazin-6-yl)-1H-pyrazol-4-yl)-1-(4-phenylpiperidin-1-yl)propan-1-one] | also active in cells | – |
| Cc1nn(-c2ccc3nnc(C)n3n2)c(C)c1CCC(=O)N1CCC(c2ccccn2)CC1 [HZM06-7, 3-(3,5-dimethyl-1-(3-methyl-[1,2,4]triazolo[4,3-b]pyridazin-6-yl)-1H-pyrazol-4-yl)-1-(4-(pyridin-2-yl)piperidin-1-yl)propan-1-one] | also active in cells; also recorded: most active analogs | interaction of endogenous Ubc13 with HA-tagged TRAF6 (co-immunoprecipitation) ([1]; listed as HZM06-07): demonstrated inhibition of TRAF6-Ubc13 binding |
| COc1cccc(CC2CCN(C(=O)CCc3c(C)nn(-c4ccc5nnc(C)n5n4)c3C)CC2)c1 [HZM06-8, 1-(4-(3-methoxybenzyl)piperidin-1-yl)-3-(3,5-dimethyl-1-(3-methyl-[1,2,4]triazolo[4,3-b]pyridazin-6-yl)-1H-pyrazol-4-yl)propan-1-one] | also active in cells; also recorded: most active analogs | interaction of endogenous Ubc13 with HA-tagged TRAF6 (co-immunoprecipitation) ([1]; listed as HZM06-08): demonstrated inhibition of TRAF6-Ubc13 binding |
| Cc1nn(-c2ccc3nnc(C)n3n2)c(C)c1CCC(=O)N1CCC(Cc2ccc(F)cc2)CC1 [HZM06-9, 1-(4-(4-fluorobenzyl)piperidin-1-yl)-3-(3,5-dimethyl-1-(3-methyl-[1,2,4]triazolo[4,3-b]pyridazin-6-yl)-1H-pyrazol-4-yl)propan-1-one] | also active in cells; also recorded: most active analogs | interaction of endogenous Ubc13 with HA-tagged TRAF6 (co-immunoprecipitation) ([1]; listed as HZM06-09): demonstrated inhibition of TRAF6-Ubc13 binding |
| Cc1nn(-c2ccc3nnc(C)n3n2)c(C)c1CCC(=O)N1CCC(Cc2ccccn2)CC1 [HZM06-10, 3-(3,5-dimethyl-1-(3-methyl-[1,2,4]triazolo[4,3-b]pyridazin-6-yl)-1H-pyrazol-4-yl)-1-(4-((pyridin-2-yl)methyl)piperidin-1-yl)propan-1-one] | also active in cells | – |
